Measured values reported in US7026350B2, “Water-soluble drugs and methods for their production” (The United States of America as represented by the …, priority 1998, dated 2006).
Read-outs that look alike come from different tables or passages of the source. Values belong to the molecule of their own block, whether it stands above or below them.

Legend:
N87 cells = assay: N87 proliferation measured by tritiated-thymidine incorporation; format: cell-based
Protocol: N87 cells were exposed to the 17-demethoxy-17-aminoderivative of geldanamycin indicated in Table 1 below, and the concentration at which the proliferation of the N87 cells was inhibited by 50% was determined in nanomolar units.

HuT102 cells = assay: Internalization of radiolabeled antibody by HuT102 cells; format: cell-based; settings: cells washed with dilute acid
Protocol: This example employs three antibodies, e21, AE1 (from Landolfi, Protein Design Labs, California), and anti-Tac (i.e., Zenapax from Hoffman-LaRoche, Inc., Nutley, N.J.). The antibodies e21 and AE1 bind Her2 with high affinity, and anti-Tac binds CD25 with high affinity. All three antibodies were radiolabeled and incubated with cells expressing the respective ligands on their cell surfaces (N87 cells for e21 and AE1 and HuT102 cells for anti-Tac). Both N87 cells and HuT102 cells are cancer cells that are known to be sensitive to the effects of geldanamycin. (HuT102 cells are cultured cells from an ATL patient available from the inventor's laboratories.) The cells were washed with dilute acid to remove unincorporated radiolabel, and the amount of radiolabel remaining in the cells was measured as an indication of the amount of antibody internalized.

[1] = tritiated-thymidine incorporation, read-out: concentration that inhibited 50% of the N87 proliferation

- solubility in water (Solubility in water): water-soluble
Molecule: 17-cys-GMB-aminopropylaminogeldanamycin [compound 4]

Molecule: COC1C=CC=C(C)C(=O)NC2=CC(=O)C(NCCCN)=C(CC(C)CC(OC)C(O)C(C)C=C(C)C1OC(N)=O)C2=O (centres unmarked) [17-aminopropylamino-geldanamycin, 17-aminopropylaminogeldanamycin]
- IC50 (N87 cells; [1]): 180 nM

Molecule: COC1=C2C[C@@H](C)C[C@H](OC)[C@H](O)[C@@H](C)/C=C(\C)[C@H](OC(N)=O)[C@@H](OC)/C=C\C=C(/C)C(=O)NC(=CC1=O)C2=O [geldanamycin]
- IC50 (N87 cells; Table 1, read-out: IC50 (nM), proliferation of N87 cells inhibited by 50%): 8.4 nM
- IC50 (N87 cells; [1]): 8 nM

B1: anti-Tac: anti-Tac (i.e., Zenapax from Hoffman-LaRoche), binds CD25 with high affinity (antibody, chains of the INN, looked up, V domains shown)
VH: QVQLVQSGAEVKKPGSSVKVSCKASGYTFTSYRMHWVRQAPGQGLEWIGYINPSTGYTEYNQKFKDKATITADESTNTAYMELSSLRSEDTAVYYCARGGGVFDYWGQGTLVTVSS
VL: DIQMTQSPSTLSASVGDRVTITCSASSSISYMHWYQQKPGKAPKLLIYTTSNLASGVPARFSGSGSGTEFTLTISSLQPDDFATYYCHQRSTYPLTFGQGTKVEVK
- radiolabel taken up by HuT102 cells (antibody internalized) (HuT102 cells): no significant quantity
